From ChEMBL document CHEMBL4396950, “A rational search for discovering potential neutraligands of human complement fragment 5a (hC5a)” (Bioorg Med Chem, 2019) come the findings set out here.

pKd: −log10 of the molar value. Activity calls are given as the source filed them. The rule behind the calls is not given here.

In assay [1] the target is T1, Complement C5 (Homo sapiens, UniProt P01031). In words: Induction of recombinant human C5a destabilization assessed as protein unfolding at 6 M by circular dichroism analysis. On the technique in general: CD spectra are sensitive to the conformation of chiral molecules.
The target in assay [2] is T1, Complement C5. Nature of the assay: Induction of recombinant human C5a destabilization assessed as intrinsically disordered structure at 2 to 4 M by circular dichroism analysis.
Assay [3] addresses T1, Complement C5. Nature of the assay: Induction of recombinant human C5a destabilization assessed as protein unfolding at 6 M incubated for overnight by fluorescence analysis.
In assay [4] the target is T1, Complement C5. In words: Induction of recombinant human C5a destabilization assessed as protein unfolding at 6 M after 1 hr by fluorescence analysis.
Assay [5] has as its target T1, Complement C5. Nature of the assay: Binding affinity to recombinant human C5a assessed as conformational change =< 1 uM at 4 degC incubated for 1 hr by circular dichroism analysis.
Assay [6] concerns the target T1, Complement C5. In words: Binding affinity to human C5a assessed as Potassium iodide-induced quenching by measuring Stern-Volmer quenching constant at 1 uM by fluorescence analysis.
Assay [7] concerns the target T1, Complement C5. Nature of the assay: Binding affinity to recombinant human C5a assessed as conformational change at 1 to 100 uM incubated for 1 hr at 4degC by circular dichroism analysis.
In assay [8] the target is T1, Complement C5. Nature of the assay: Binding affinity to human C5a assessed as dissociation constant after 1 hr by circular dichroism analysis.
For assay [9], the target named is T1, Complement C5. In words: Binding affinity to human C5a assessed as induction of conformational change with no shift in absorption maxima at 1 uM by fluorescence analysis.
In assay [10] the target is T1, Complement C5. Nature of the assay: Binding affinity to human C5a assessed as loss of secondary structure by measuring red shift in absorption maxima at 10 to 100 uM by fluorescence analysis.
Assay [11] concerns the target T1, Complement C5. In words: Binding affinity to recombinant human C5a assessed as loss of super secondary structure at > 10 uM incubated for 1 hr at 4 degC by circular dichroism analysis.
The target of assay [12] is T1, Complement C5. In words: Induction of human recombinant C5a unfolding by circular dichroism analysis.
In assay [13] the target is T1, Complement C5. In words: Induction of human recombinant C5a destabilization assessed as protein structure helicity up to 10 uM by circular dichroism analysis.
Assay [14] concerns the target T1, Complement C5. In words: Induction of recombinant human C5a destabilization assessed as intrinsically disordered structure at 8 M incubated for overnight by fluorescence analysis.
For assay [15], the target named is T1, Complement C5. Nature of the assay: Induction of recombinant human C5a destabilization assessed as intrinsically disordered structure at 2 to 8 M by circular dichroism analysis.
Assay [16] has as its target T1, Complement C5. In words: Induction of recombinant human C5a destabilization assessed as intrinsically disordered structure at 8 M incubated for 1 hr by fluorescence analysis.

`N=C(N)N`: the result in assay [1], in [2], in assay [3] and in assay [4] was Active.
For orientation: pKd means the negative decadic logarithm of the Kd, by convention in mol/L. For the compound `CC1=C(CC(=O)O)c2cc(F)ccc2/C1=C\c1ccc([S+](C)[O-])cc1` (stereo not drawn), the result in assay [5], in assay [7], in assay [9], in assay [10], in [11] and in [12] was Active. For the same compound, the KSV in [6] was 2.5 M⁻¹. Besides, in assay [8], the pKd was 6.24. In addition, the Activity in assay [13] stood at 5%.
Take `O=C(O)CCc1nc(-c2ccccc2)c(-c2ccccc2)o1` [OXAPROZIN]: in [6], the KSV came to 4.3 M⁻¹. Further, the pKd in assay [8] is 6.19.
In the same order, the values of `CC(C(=O)O)c1ccc2c(c1)[nH]c1ccc(Cl)cc12` (stereo not drawn) [CARPROFEN] are 2.6 M⁻¹ and 6.24.
On to `O=C(c1ccc(OCCN2CCCCC2)cc1)c1c(-c2ccc(O)cc2)sc2cc(O)ccc12` [RALOXIFENE], for which, in assay [6], the KSV came out at 1.1 M⁻¹. Besides, the pKd in assay [8] was 6.15.
Consider `NC(N)=O`, for which the result in assay [14], in assay [15] and in assay [16] was Active.
For the compound `CC(=O)N[C@@H](Cc1c[nH]c2ccccc12)C(N)=O`, the KSV in assay [6] is 12.4 M⁻¹.
